Results as given in PubChem BioAssay (NCI).
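Step 1: Grow cells in 96-well plates. Step 2: Expose to compound for 48 hours at 5 concentrations. Step 3: Interpolate endpoints linearly; if unreached, use highest concentration. GI50 is the concentration that inhibits growth by half. At the TGI there is no net growth.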

Key:
Assay in all cases: NCI anticancer screen, dose series, 48 h
OVCAR-5 ovarian = system: OVCAR-5 ovarian
LOX IMVI melanoma = system: LOX IMVI melanoma
SK-MEL-28 melanoma = system: SK-MEL-28 melanoma
ACHN renal = system: ACHN renal
NCI-H226 lung = system: NCI-H226 lung
HCC-2998 colon = system: HCC-2998 colon
BT-549 breast = system: BT-549 breast
EKVX NSCLC = system: EKVX NSCLC
UACC-257 melanoma = system: UACC-257 melanoma
U251 CNS = system: U251 CNS
K-562 leukemia = system: K-562 leukemia
RXF 393 renal = system: RXF 393 renal
OVCAR-4 ovarian = system: OVCAR-4 ovarian
SR leukemia = system: SR leukemia
NCI-H460 lung = system: NCI-H460 lung

Row | Structure (SMILES) | TGI (OVCAR-5 ovarian) | TGI (LOX IMVI melanoma) | TGI (SK-MEL-28 melanoma) | TGI (ACHN renal) | TGI (NCI-H226 lung) | TGI (HCC-2998 colon) | TGI (BT-549 breast) | TGI (EKVX NSCLC) | TGI (UACC-257 melanoma) | TGI (U251 CNS) | TGI (K-562 leukemia) | TGI (RXF 393 renal) | TGI (OVCAR-4 ovarian) | TGI (SR leukemia) | TGI (NCI-H460 lung) | GI50 (SK-MEL-28 melanoma) | GI50 (NCI-H226 lung) | GI50 (EKVX NSCLC) | GI50 (RXF 393 renal)
1 | COC(=O)Nc1nc2ccc(Oc3ccc4nc(NC(=O)OC)[nH]c4c3)cc2[nH]1 | > 100 µM | > 100 µM | > 20.4 µM | > 100 µM | 2.72 µM | > 22.7 µM | > 100 µM | > 100 µM | > 100 µM | 10.9 µM | > 45.2 µM | > 22.8 µM | > 100 µM | > 21.9 µM | > 100 µM |  |  |  | 
2 | CC(=O)NC1=C(C)C(=O)c2c(nc3n2CCC3OC(=O)c2ccccc2)C1=N (centres undefined) | 7.36 µM | 1.33 µM | 3.45 µM | 3.13 µM | 13.9 µM | 3.79 µM | 1.65 µM | 6 µM | 3.47 µM | 9.45 µM | 5.65 µM | 2.9 µM | 1.2 µM | 7.73 µM | 3.07 µM |  |  |  | 
3 | FC(F)(F)c1nc2ccc(SSc3ccc4nc(C(F)(F)F)[nH]c4c3)cc2[nH]1 | > 100 µM | > 100 µM | > 100 µM | > 100 µM | > 100 µM | > 100 µM | > 100 µM | > 100 µM | > 100 µM | > 100 µM | > 100 µM | > 100 µM | > 100 µM | > 100 µM | 75.1 µM | > 100 µM | > 100 µM | > 100 µM | > 100 µM
4 | CC1=C(C(=O)N[C@@H](Cc2ccccc2)C(=O)O)N2C(=O)[C@@H](NC(=O)[C@@H](N)CC(C)C)[C@H]2SC1 | > 100 µM | > 100 µM | > 100 µM | > 100 µM | > 100 µM | > 100 µM | > 100 µM | > 100 µM | > 100 µM | > 100 µM | > 100 µM | > 100 µM | > 100 µM | > 100 µM | > 100 µM |  |  |  | 
5 | Cc1cccc(-n2c(C)nc3ccc(NC4OC(CO)C(O)C(O)C4O)cc3c2=O)c1 (centres undefined) | > 100 µM | > 100 µM | > 100 µM | > 100 µM | > 100 µM | > 100 µM | > 100 µM | > 100 µM | > 100 µM | > 100 µM | > 100 µM | > 100 µM | > 100 µM | > 100 µM | > 100 µM |  |  |  | 
